Test results: patent US10364256B2 (GlaxoSmithKline Intellectual Property Development Limited, priority 2015, dated 2019)
Read-outs that look alike come from different tables or passages of the source.

Key:
[1] = tested on: NQO1 specific enzyme activity in BEAS-2B cells (marker for NRF2 activation); experiment: BEAS-2B NQO1 MTT Assay; format: cell-based; conditions: compound incubated 48 hours, read-out: EC50 (NQO1 specific enzyme activity induction)
Outline: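 NQO1 specific activity induction is derived from the rate of MTT reduction (ΔOD/min, 570 nm, 30 min kinetic read) in crude lysates of BEAS-2B cells exposed to compound for 48 h. A 3-parameter fit gives EC50, reported as pEC50; part of each lysate goes to Cell Titer Glo.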

[2] = target: T1, Keap1 Kelch domain (321-609) / TAMRA-labeled 16mer NRF2 peptide (ETGE motif) (Homo sapiens, UniProt Q14145); experiment: NRF2-Keap1 FP Assay (Keap1 Kelch fluorescence polarization); format: binding; conditions: 20 nM Keap1 (321-609), 8 nM Tamra labeled peptide
T1 construct: the Kelch domain (321-609) of Keap1 is used
Outline: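 Compound dilutions (3-fold) were incubated 1 hr at room temperature with 20 nM Keap1 Kelch (321-609) and 8 nM TAMRA-labeled ETGE 16mer peptide. Buffer was 50 mM Tris pH 8.0, 100 mM NaCl, 5 mM MgCl2, 1 mM DTT, 2 mM CHAPS, 0.005% BSA. Fluorescence polarization (mP) was normalized to controls and fitted with a four-parameter equation to give pIC50.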

T1 sequence (Q14145 321-609): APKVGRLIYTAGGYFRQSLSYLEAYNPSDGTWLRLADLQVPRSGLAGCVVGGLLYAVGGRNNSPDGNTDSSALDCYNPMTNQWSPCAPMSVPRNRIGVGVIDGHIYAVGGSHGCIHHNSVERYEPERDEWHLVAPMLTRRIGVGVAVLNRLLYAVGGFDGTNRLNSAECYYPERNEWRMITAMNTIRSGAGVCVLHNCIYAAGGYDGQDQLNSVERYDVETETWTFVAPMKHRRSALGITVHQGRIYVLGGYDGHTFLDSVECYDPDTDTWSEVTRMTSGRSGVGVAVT

Row | Compound | EC50 [1] | IC50 [2] | EC50 ([1]; Homo sapiens)
1 | 1-(3′-((2-chlorocyclohexyl)methoxy)-[1,1′-biphenyl]-3-yl)-5-((1,2-trans)-2-(1-methyl-1H-1,2,3-triazol-4-yl)cyclopropyl)-1H-pyrazole-4-carboxylic acid [Example 186] | 10 to 100 nM | 100 to 1000 nM | –
2 | Cn1cc([C@@H]2C[C@H]2c2c(C(=O)O)cnn2-c2cccc(-c3cccc(-n4ncc5c4C(C)(C)CC5)c3)n2)nn1 (racemic) [Example 251, 1-(6-(3-(6,6-Dimethyl-5,6-dihydrocyclopenta[c]pyrazol-1(4H)-yl)phenyl)pyridin-2-yl)-5-(trans-2-(1-methyl-1H-1,2,3-triazol-4-yl)cyclopropyl)-1H-pyrazole-4-carboxylic Acid] | – | 10 to 100 nM | 100 to 1000 nM
3 | Cn1cc([C@@H]2C[C@H]2c2c(C(=O)O)cnn2-c2cccc(-c3cccc(CN4Cc5ccccc5OC(C)(C)C4)c3)c2)nn1 (racemic) [Example 254, 1-(3′-((2,2-Dimethyl-2,3-dihydrobenzo[f][1,4]oxazepin-4(5H)-yl)methyl)-[1,1′-biphenyl]-3-yl)-5-(trans-2-(1-methyl-1H-1,2,3-triazol-4-yl)cyclopropyl)-1H-pyrazole-4-carboxylic Acid] | – | 10 to 100 nM | 100 to 1000 nM
4 | Cn1cc([C@H]2C[C@@H]2c2c(C(=O)O)cnn2-c2cccc(-c3cccc(C(=O)N4CCCCC4)c3F)c2)nn1 (racemic) [Example 258, 1-(2′-Fluoro-3′-(piperidine-1-carbonyl)-[1,1′-biphenyl]-3-yl)-5-(trans-2-(1-methyl-1H-1,2,3-triazol-4-yl)cyclopropyl)-1H-pyrazole-4-carboxylic Acid] | – | 10 to 100 nM | 100 to 1000 nM
5 | Cn1cc([C@H]2C[C@@H]2c2c(C(=O)O)cnn2-c2cccc(-c3cccc(C(=O)N4CCCC(C)(C)C4)c3F)c2)nn1 (racemic) [Example 259, 1-(2′-Fluoro-3′-(3,3-dimethylpiperidine-1-carbonyl)-[1,1′-biphenyl]-3-yl)-5-(trans-2-(1-methyl-1H-1,2,3-triazol-4-yl)cyclopropyl)-1H-pyrazole-4-carboxylic Acid] | – | 10 to 100 nM | 100 to 1000 nM
6 | Cn1cc([C@H]2C[C@@H]2c2c(C(=O)O)cnn2-c2cccc(-c3cccc(C(=O)N4CCCCCC4)c3F)c2)nn1 (racemic) [Example 260, 1-(2′-Fluoro-3′-(azepane-1-carbonyl)-[1,1′-biphenyl]-3-yl)-5-(trans-2-(1-methyl-1H-1,2,3-triazol-4-yl)cyclopropyl)-1H-pyrazole-4-carboxylic Acid] | – | 10 to 100 nM | 100 to 1000 nM
7 | CC1CC(C)CN(C(=O)c2cccc(-c3cccc(-n4ncc(C(=O)O)c4[C@@H]4C[C@H]4c4cn(C)nn4)c3)c2F)C1 (mixture of isomers) [Example 263, 1-(3′-(3,5-Dimethylpiperidine-1-carbonyl)-2′-fluoro-[1,1′-biphenyl]-3-yl)-5-(2-(1-methyl-1H-1,2,3-triazol-4-yl)cyclopropyl)-1H-pyrazole-4-carboxylic Acid] | – | 10 to 100 nM | 100 to 1000 nM
8 | COCC1CCCCN1C(=O)c1cccc(-c2cccc(-n3ncc(C(=O)O)c3C3C[C@H]3c3cn(C)nn3)c2)c1F (mixture of isomers) [Example 264, 1-(3′-(2-(Methoxymethyl)piperidine-1-carbonyl)-2′-fluoro-[1,1′-biphenyl]-3-yl)-5-(trans-2-(1-methyl-1H-1,2,3-triazol-4-yl)cyclopropyl)-1H-pyrazole-4-carboxylic Acid] | – | 10 to 100 nM | 100 to 1000 nM
9 | CC(C)CN(C)C(=O)c1cccc(-c2cccc(-n3ncc(C(=O)O)c3[C@@H]3C[C@H]3c3cn(C)nn3)c2)c1F (racemic) [Example 266, 1-(2′-Fluoro-3′(isobutyl(methyl)carbamoyl)-[1,1′-biphenyl]-3-yl)-5-(trans-2-(1-methyl-1H-1,2,3-triazol-4-yl)cyclopropyl)-1H-pyrazole-4-carboxylic Acid] | – | 10 to 100 nM | 100 to 1000 nM
10 | CC(Oc1cccc(-c2cccc(-n3ncc(C(=O)O)c3[C@@H]3C[C@H]3c3cn(C)nn3)n2)c1)C1CCCCC1 (relative stereo) [Example 249, 1-(6-(3-(1-Cyclohexylethoxy)phenyl)pyridin-2-yl)-5-(trans-2-(1-methyl-1H-1,2,3-triazol-4-yl)cyclopropyl)-1H-pyrazole-4-carboxylic Acid] | – | 10 to 100 nM | 1 to 10 nM
11 | CCC1Cc2ccccc2CN(Cc2cccc(-c3cccc(-n4ncc(C(=O)O)c4[C@@H]4C[C@H]4c4cn(C)nn4)c3)c2)C1 (relative stereo) [Example 252, 1-(3′-((4-Ethyl-4,5-dihydro-1H-benzo[c]azepin-2(3H)-yl)methyl)-[1,1′-biphenyl]-3-yl)-5-(trans-2-(1-methyl-1H-1,2,3-triazol-4-yl)cyclopropyl)-1H-pyrazole-4-carboxylic Acid] | – | 10 to 100 nM | 100 to 1000 nM
12 | C[C@@H]1CCC[C@H](C)N1C(=O)c1cccc(-c2cccc(-n3ncc(C(=O)O)c3[C@H]3C[C@@H]3c3cn(C)nn3)c2)c1F (single isomer, unassigned) [Example 261] | – | 10 to 100 nM | 10 to 100 nM
13 | C[C@@H]1CCC[C@H](C)N1C(=O)c1cccc(-c2cccc(-n3ncc(C(=O)O)c3[C@@H]3C[C@H]3c3cn(C)nn3)c2)c1F (single isomer, unassigned) [Example 262] | – | 10 to 100 nM | 10 to 100 nM
14 | CCCC1CCCCN1C(=O)c1cccc(-c2cccc(-n3ncc(C(=O)O)c3C3CC3)c2)c1F (stereo in doubt) [Example 54d, 5-Cyclopropyl-1-{3-[2-fluoro-3-((2R)-2-propylpiperidine-1-carbonyl)phenyl]phenyl}-1H-pyrazole-4-carboxylic Acid] | – | 10 to 100 nM | 100 to 1000 nM
15 | O=C(O)c1cnn(-c2cccc(-c3cccc(C(=O)N(CC4CC4)CC4CC4)c3F)c2)c1C1CC1 [Example 8, 1-(3-{3-[Bis(cyclopropylmethyl)carbamoyl]-2-fluorophenyl}phenyl)-5-cyclopropyl-1H-pyrazole-4-carboxylic Acid] | – | 10 to 100 nM | 100 to 1000 nM
16 | CC(C)CC1CCCCN1C(=O)c1cccc(-c2cccc(-n3ncc(C(=O)O)c3C3CC3)c2)c1F (centres unmarked) [Example 28, 5-Cyclopropyl-1-(3-{2-fluoro-3-[2-(2-methylpropyl)piperidine-1-carbonyl]phenyl}phenyl)-1H-pyrazole-4-carboxylic Acid] | – | 10 to 100 nM | 100 to 1000 nM
17 | CC1CCCN(C(=O)c2cccc(-c3cccc(-n4ncc(C(=O)O)c4C4CC4)c3)c2F)CC1 (centres unmarked) [Example 29, 5-Cyclopropyl-1-{3-[2-fluoro-3-(4-methylazepane-1-carbonyl)phenyl]phenyl}-1H-pyrazole-4-carboxylic Acid] | – | 10 to 100 nM | 100 to 1000 nM
18 | CC1CCC(C)N(C(=O)c2cccc(-c3cccc(-n4ncc(C(=O)O)c4C4CC4)c3)c2F)C1 (centres unmarked) [Example 30, 5-Cyclopropyl-1-{3-[3-(2,5-dimethylpiperidine-1-carbonyl)-2-fluorophenyl]phenyl}-1H-pyrazole-4-carboxylic Acid] | – | 10 to 100 nM | 100 to 1000 nM
19 | O=C(O)c1cnn(-c2cccc(-c3cccc(C(=O)N4CCCC5CCCCC54)c3F)c2)c1C1CC1 (centres unmarked) [Example 31, 5-Cyclopropyl-1-{3-[3-(decahydroquinoline-1-carbonyl)-2-fluorophenyl]phenyl}-1H-pyrazole-4-carboxylic Acid] | – | 100 to 1000 nM | 100 to 1000 nM
20 | O=C(O)c1cnn(-c2cccc(-c3cccc(C(=O)N4CCCCC4C4CCCC4)c3F)c2)c1C1CC1 (centres unmarked) [Example 33, 1-{3-[3-(2-Cyclopentylpiperidine-1-carbonyl)-2-fluorophenyl]phenyl}-5-cyclopropyl-1H-pyrazole-4-carboxylic Acid] | – | 10 to 100 nM | 100 to 1000 nM
21 | O=C(O)c1cnn(-c2cccc(-c3cccc(C(=O)N4C5CCCC4CCC5)c3F)c2)c1C1CC1 [Example 34, 1-[3-(3-{9-azabicyclo[3.3.1]nonane-9-carbonyl}-2-fluorophenyl)phenyl]-5-cyclopropyl-1H-pyrazole-4-carboxylic Acid] | – | 10 to 100 nM | 100 to 1000 nM
22 | O=C(O)c1cnn(-c2cccc(-c3cccc(C(=O)N4CCCC5(CCCC5)C4)c3F)c2)c1C1CC1 [Example 35, 1-[3-(3-{7-Azaspiro[4.5]decane-7-carbonyl}-2-fluorophenyl)phenyl]-5-cyclopropyl-1H-pyrazole-4-carboxylic Acid] | – | 10 to 100 nM | 100 to 1000 nM
23 | O=C(O)c1cnn(-c2cccc(-c3cccc(C(=O)N4CCCCC4CCC(F)(F)F)c3F)c2)c1C1CC1 (centres unmarked) [Example 38, 5-Cyclopropyl-1-(3-{2-fluoro-3-[2-(3,3,3-trifluoropropyl)piperidine-1-carbonyl]phenyl}phenyl)-1H-pyrazole-4-carboxylic Acid] | – | 10 to 100 nM | 100 to 1000 nM
24 | CCC[C@@H]1CO[C@@H](C)CN1C(=O)c1cccc(-c2cccc(-n3ncc(C(=O)O)c3C3CC3)c2)c1F [Example 45, 5-cyclopropyl-1-(3-{2-fluoro-3-[(2S,5R)-2-methyl-5-propylmorpholine-4-carbonyl]phenyl}phenyl)-1H-pyrazole-4-carboxylic Acid] | – | 10 to 100 nM | 100 to 1000 nM
25 | CC1CC(C)CN(C(=O)c2cccc(-c3cccc(-n4ncc(C(=O)O)c4C4CC4)c3)c2F)C1 (centres unmarked) [Example 53, 5-Cyclopropyl-1-[3′-(3,5-dimethyl-piperidine-1-carbonyl)-2′-fluoro-biphenyl-3-yl]-1H-pyrazole-4-carboxylic Acid] | – | 10 to 100 nM | 100 to 1000 nM
